According to publication PMC4932606, “Novel stereoselective bufadienolides reveal new insights into the requirements for Na^+, K^+-ATPase inhibition by cardiotonic steroids” (Scientific Reports, 2016):
Values joined by “and” are separate entries in the source; they are usually repeats but may differ in a detail not shown here. Equal entries are not always repeated.

How the values were obtained:
[1] = molecular target: T1, Na+, K+-ATPase from pig kidney microsomal membranes (Sus scrofa, UniProt P05024); experiment: Na+,K+-ATPase inhibition assay (residual ATP hydrolysis after 2 h preincubation with inhibitor); format: biochemical; conditions: for KC (equilibrium constant E•I ↔ E•I*): KC = Fhigh/Flow; for Ki: Ki (dissociation constant of initial binding E + I ↔ E•I), derived from KDiss,high and KC; for percentage of high-affinity component (Fhigh): magnitude of high-affinity component of the inhibition curve; for percentage of low-affinity component (Flow): magnitude of low-affinity component of the inhibition curve; for ratio of KDiss,high values α-isomer:β-isomer: stereoselectivity, α:β of the same pair;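 for all read-outs here: enzyme preincubated with inhibitor in 40 mM Tris pH 7.0 containing 3 mM MgCl2 and 3 mM Na-phosphate, remaining activity measured as phosphate released from ATP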
T1 construct: Na^+, K^+-ATPase from pig kidney microsomal membranes was purified by differential centrifugation; from tissue; host or cells: pig kidney microsomal membranes
Experimental: The residual rates of ATP hydrolysis were plotted vs. different drug concentrations and analysed by fitting hyperbolic functions corresponding to a dominant high-affinity component and (where appropriate) a second smaller low-affinity component, and the resulting kinetic parameters were shown in Table 1.
The solid lines represent hyperbolic fits to the inactivation measured after preincubation of the inhibitors with NKA for 2 hours at 37 °C in the presence of Mg^2+ and Pi.
Na^+, K^+-ATPase from pig kidney microsomal membranes was purified by differential centrifugation[27]. […] The inhibitory effects of bufadienolides on NKA were determined essentially as previously reported[9][10].
Preparation and activity assay of Na+,K+-ATPase
Na+,K+-ATPase from pig kidney microsomal membranes was purified by
differential centrifugation.27 The specific Na,K-ATPase activity was determined
from the difference in the amount of phosphate released in the absence and
4 mM MgCl2 and 3 mM ATP. The specific activity of the enzyme preparation
was approximately 30 µmol ATP hydrolysed/mg protein per min at 37°C.27 The
phosphorylation capacity is about 2.9 nmol/mg protein and is equal to the
high-affinity ouabain binding capacity.10, 27
Details of the kinetic analysis of inhibition
The inhibitory effects of bufadienolides on NKA were determined
essentially as previously reported9, 10. In brief, NKA is preincubated at 37 °C for
2 hours in the presence of 3 mM MgCl2, 3 mM Na-phosphate and 40 mM Tris
(pH 7.0) with increasing concentrations of inhibitor. The residual NKA activity is
subsequently determined by 40-fold dilution into a standard ATPase assay
For each inhibitor concentration the
residual activity was determined in two or three independent experiments and
the error bars in Fig. 4 indicate the standard deviation.
(2) Detailed explanation of the kinetic analysis of inhibition
The interaction between bufalins (I) and Na+,K+-ATPase (E) is interpreted as
relatively slow equilibrium.
The binding of I to E is described by a dissociation constant
The conformational change
is described by an equilibrium constant
After equilibrium is attained by preincubation of the enzyme and inhibitor,
the residual Na+,K+-ATPase activity is measured by a 40-fold dilution into the
assay medium for 2 min. It is assumed that the dilution leads to an immediate
dissociation of E•I into E + I, and it is also assumed that the conformational
change E•I ↔ E•I* is slow on the 2-minutes time scale of the functional assay.
The observed decrease in the Na+,K+-ATPase activity is thus an estimate
of the amount of E•I* present at a given inhibitor concentration in the
preincubation media, and the observed concentration dependence of
inactivation is related to Ki as well as KC.

Na+,K+-ATPase membranes = experiment: 13C CP-MAS SSNMR of NKA membranes with labelled inhibitor (binding-site saturation estimated from Table 1); design: species or system pig; conditions: NKA 13 nmol with 16 nmol inhibitor
Text: We next considered whether the enhanced activity of 5β arises from the additional hydrogen-bonding capacity of the glucose moiety. […] Here we used ^13C cross-polarization magic-angle spinning (CP-MAS) SSNMR to report on the interactions of the glycosidic groups of 5α and 5β with the binding site. […] In Fig. 5 panels C and D are shown ^13C CP-MAS SSNMR spectra of NKA (13 nmol) in the absence of inhibitor (red) and with 5β or 5α (each 16 nmol) (black), respectively. From Table 1 it is estimated that there is 99.5% saturation of the binding site by 5β and about 75% saturation by 5α. For the complex with 5β (Fig. 5C), signals from the inhibitor can clearly be observed around 60–90 ppm; […].
One dimensional proton-decoupled ^13C CP-MAS NMR experiments were performed at −25 °C using a Bruker Avance 400 MHz spectrometer at a magnetic field of 9.3 T equipped with a 4 mm HXY probe and (for 2D measurements on membranes) on a Bruker Avance III 700 MHz instrument with a 3.2 mm HXY probe operating in double-resonance mode. Samples were spun at a MAS rate of 5 kHz in a 4 mm zirconium rotor. […] Two-dimensional DARR spectra of solid inhibitors were recorded at room temperature with a 2-ms contact time at a field of 63 kHz, 83 kHz SPINAL-64 decoupling, […] and a 8-kHz proton field matched to the spinning frequency during a 10-ms mixing time. […]

[2] = KDiss,high, high-affinity component of inhibition curve, preincubation 2 h, 37 °C, Mg2+ and Pi
[3] = KDiss,low, low-affinity component of inhibition curve, reflects ATPase assay medium

SMILES	KC (equilibrium constant E•I ↔ E•I*) [1]	Kd [1, 2] [µM]	Kd [1, 3] [µM]	Ki [1]	percentage of high-affinity component (Fhigh) [1] [%]	percentage of low-affinity component (Flow) [1] [%]	ratio of KDiss,high values α-isomer:β-isomer [1]	Kd ([1]; KDiss,low, low-affinity component, value in mM) [µM]	saturation of the binding site (Na+,K+-ATPase membranes)
CON[C@@H]1CC[C@@]2(C)[C@H](CC[C@@H]3[C@@H]2CC[C@]2(C)[C@@H](c4ccc(=O)oc4)CC[C@]32O)C1 [Compound 4α]	9.0	7.26 ± 0.16	524 ± 153	65 µM	90	10	145		
CON[C@H]1CC[C@@]2(C)[C@H](CC[C@@H]3[C@@H]2CC[C@]2(C)[C@@H](c4ccc(=O)oc4)CC[C@]32O)C1 [Compound 4β]	6.14	< 0.05		~0.31 µM and 0.31 µM				> 1000	
CON([C@@H]1CC[C@@]2(C)[C@H](CC[C@@H]3[C@@H]2CC[C@]2(C)[C@@H](c4ccc(=O)oc4)CC[C@]32O)C1)[C@@H]1O[C@H](CO)[C@@H](O)[C@H](O)[C@H]1O [Compound 5α]	49	39.2 ± 1.5		1920 µM	98		461		about 75%
CON(C1CCC2(C)C(CCC3C2CCC2(C)C(c4ccc(=O)oc4)CCC32O)C1)C1OC(CO)C(O)C(O)C1O (stereo not drawn) [Compound 5β]	3.17	0.085 ± 0.01	67.6 ± 38	~0.26 µM and 0.26 µM	76				99.5%
C[C@]12CC[C@](O)(C(F)(F)F)C[C@H]1CC[C@@H]1[C@@H]2CC[C@]2(C)[C@@H](c3ccc(=O)oc3)CC[C@]12O [Compound 6α]	1.86	22.7 ± 1.56	242 ± 35	42.2 µM	65	33	6.4		
C[C@]12CC[C@@](O)(C(F)(F)F)C[C@H]1CC[C@@H]1[C@@H]2CC[C@]2(C)[C@@H](c3ccc(=O)oc3)CC[C@]12O [Compound 6β]	1.78	3.56 ± 0.6	93.5 ± 67	6.3 µM	64	32			
